We go through 89 compounds from a melting point compilation (Tetko et al.; mined from patent text by program, amines drawn as free bases though some values may be those of a salt).

With `CCOC(=O)c1cn(C2COC2)c2c(F)c(F)c(F)c(F)c2c1=O`, the melting point lay within 110 to 113 °C. `CC(C)(O)Cn1c(COCc2ccccc2)nc2c(N)nc3ccccc3c21`: the melting point was 196 to 198 °C. In the case of `CC(C)(C)c1cc(C(=O)NCc2ccc([N+](=O)[O-])cc2)cc(C(C)(C)C)c1O`, the melting point fell in the range of 230 to 231 °C. `CCCCN(CC1Cc2cc(Cl)cc(Cl)c2O1)C(=O)n1ccnc1` (centres undefined) displayed a melting point of 98 to 100 °C. The compound `NS(=O)(=O)c1ccc(-n2nc(C(F)(F)F)cc2-c2ccc(-c3cocn3)cc2)cc1` displayed a melting point of 170 to 172 °C. The compound `CN1CCCC1CCN1CCN(CCC2CCCN2C)C1=C(C#N)C#N` (centres undefined) yielded a melting point of 121 to 123 °C.

In turn, `CCOC(=O)N1CCn2c(nc(-c3ccncn3)cc2=O)C(NCc2ccc(OC)cc2)C1` (racemic) yielded a melting point of 217 to 219 °C.

`COc1cccc(-c2[nH]cc(C3=C[C@@H]4C[C@@H](c5ccccc5)CN4CC3)c2-c2ccncc2)c1` showed a melting point of 141 to 144 °C. `COc1cc(OCc2ccc3ccccc3c2)cc(C(=O)c2nccs2)c1`: the melting point lay within 105 to 106 °C. Turning to `O=C1c2ccccc2C(=O)c2sc(-c3ccccn3)nc21`, the melting point is greater than 260 °C. Regarding `CC(C)(C)OC(=O)NCCNC(=O)c1ncsc1Br`, the melting point lay in the range of 108 to 111 °C. `ClCCCN1c2ccccc2OCOc2ccc(Cl)cc21` had a melting point of 105 to 108 °C. Then `COc1ccc(C(=O)NCCCCCCCCCCCNC(=O)c2ccc(OC)cc2)cc1`, with 150 to 151 °C. With `Oc1cccc(CCc2nc(-c3ccsc3)c(-c3ccsc3)o2)c1`, the melting point lay in the range of 144 to 145 °C.

For the compound `c1ccc2c(CN3CCN(Cc4ccc5c(c4)OCO5)CC3)n[nH]c2c1`, the melting point lay in the range of 175 to 176 °C. The value for `CC(C)(C)OC(=O)Nc1cc(Cl)c(-c2ccccc2)cc1N` was 109 to 111 °C.

Turning to `CN(c1ccc2sccc2c1)c1nc(=O)c2cccnc2s1`, the melting point lay in the range of 214 to 216 °C. The value for `CC(=O)NNc1nc(C(F)(F)F)nc(-c2ccc(S(C)(=O)=O)cc2)c1-c1ccc(Cl)cc1` was 254 to 256 °C. `COC(=O)/C(=C/c1cccc([N+](=O)[O-])c1)CC(=O)O` displayed a melting point of 160 to 161 °C. `NC(=S)NCc1cn(-c2ccc(N3CCOCC3)c(F)c2)nn1` came in with a melting point of 192 °C.

`O=C(O)COc1ccc2c(=O)c3c(oc2c1)C(=Cc1ccccc1)CC3` showed a melting point of 277 to 279 °C.

For `COC(=O)C(Cc1ccccc1)NC(=O)C(CC(=O)O)NC(=O)CC(C)=O` (centres undefined), the melting point fell in the range of 118 to 121 °C.

Compound `CCCCCCCCCCCCCCCCCCN(C)S(=O)(=O)c1cc(C(=O)OC)c([N+](=O)[O-])c(C(=O)OC)c1` had a melting point of 70 to 72 °C.

For the compound `COC(=O)c1sccc1NC(=O)c1ccccc1SSc1ccccc1C(=O)Nc1ccsc1C(=O)OC`, the melting point fell in the range of 250 to 252 °C.

`COc1cnc(CSc2nc3cc(OC(F)(F)F)ccc3[nH]2)c(C)c1OC` returned a melting point of 94 to 97 °C. In the case of `CNc1ccc(CCc2ccc(OCc3ccccc3)c(OCc3ccccc3)c2)cc1`, the melting point fell in the range of 61 to 65 °C. In turn, `CC(C)n1nc(-c2c(-c3ccccc3)nn3ccc(N4CCN(C(=O)N(C)C)CC4)cc23)ccc1=O` gave a melting point of 160 to 161 °C. The compound `Cc1c(C#N)ccc(Cl)c1Cl` yielded a melting point of 78 to 79 °C. `CC(O)(c1nc2ccccc2[nH]1)C(F)(F)F` (centres undefined) showed a melting point of 184 to 187 °C. As for `COC(=O)C=Cc1nc(C(=O)CCCC(=O)OC)ccc1OC`, the melting point lay in the range of 87 to 89 °C. `CCCn1c(=O)c2[nH]c(-c3ccc(C#N)cc3)nc2n(C)c1=O` gave a melting point of 314 to 318 °C. Then `Cc1ccc(-c2ccc(CBr)cc2)cc1`, with 100 to 102 °C. Then `O=C(C=Cc1cccc(Oc2ccccc2)c1)NCCCCCC(=O)NO`, with 113 to 115 °C; and `C[C@@H]1CCCN1CCCOc1ccc(-c2ccc(=O)[nH]n2)cn1`, with 178 to 181 °C. Turning to `CCCCc1ncc(C=O)n1Cc1ccc(C(=O)OC)cc1`, the melting point lay in the range of 62 to 64 °C. For the compound `CC(=O)Oc1cc2c(c3ccccc13)N(C(=O)OC(C)OC(C)=O)c1ccccc1S2` (centres undefined), the melting point lay within 76 to 78 °C. The value for `COCOc1ccccc1-c1cc(-c2ccc(OC)c(C(=O)OC)c2)c(C#N)c(NC(=O)c2cccs2)n1` was 105 to 106 °C; that for `Cn1c(-c2ccccc2)nc2ncnn2c1=S` was 246 to 248 °C.

As to `CCNC(=O)c1cccc(NC(=O)c2nnn(Cc3ccc(Cl)c(Cl)c3)c2C)c1`, the melting point amounted to 192 °C. Compound `Cc1ccc2c(c1)[C@H]1Cc3ccccc3[C@H]1N2C` (relative stereo) returned a melting point of 54 °C. Then `CSc1[nH]cc(Cc2ccccc2)c1[N+](=O)[O-]`, with 190 to 192 °C; and `CC(C)=NNC1=NCc2c[nH]c3cccc1c23`, with 200 to 201 °C.

Take `CCSc1nc2c(cc1F)c(=O)c(C(=O)O)cn2C(C)(C)C`: the melting point came to 215 °C.

For the compound `CCc1ccc(-n2nc(Cl)cc2-c2ccc(S(C)(=O)=O)cc2)cc1[N+](=O)[O-]`, the melting point fell in the range of 134 to 135 °C.

The compound `CC(O)(CC(=O)O)c1ccc(-c2ccc(Br)cc2Br)cc1` (centres undefined) gave a melting point of 118 to 120 °C.

For `CC(=O)Nc1ccc(OCc2nc3ccc(F)cc3s2)cc1`, the melting point lay in the range of 204 to 205 °C. `O=C(Oc1ccc(F)cc1)[C@H]1CC[C@H](C(F)(F)C(F)(F)C(F)(F)C(F)(F)C(F)(F)C(F)(F)C(F)(F)F)CC1` displayed a melting point of 93.6 °C. Consider `CC(=O)c1ccc(Nc2cccc(-c3cncnc3)c2)c([N+](=O)[O-])c1`, for which the melting point was in the range of 131 to 132 °C. `O=C1c2ccccc2C(=O)N1CCCC=NNc1ccc(S(=O)(=O)Nc2ccccc2)cc1`: the melting point was 126 to 129 °C. As for `O=C(O)Cn1c(Cc2ccccc2)ccc(NC(=O)CCc2ccccc2)c1=O`, the melting point was 214 to 216 °C.

Regarding `COc1cc2c(c(Cl)c1Cl)C(=O)C(C)(C(C)C)C2` (centres undefined), the melting point was 143 °C.

For the compound `O=c1cc2c(n[nH]1)-c1ccccc1SCC2`, the melting point was in the range of 311 to 313 °C. `Nc1ncnc2c1ncn2Cc1nc2cc(F)ccc2c(=O)n1-c1ccccc1Cl`: the melting point is 217 °C.

As for `Cc1cc2nc(C=Cc3ccc(C(=O)O)cc3)oc2cc1C`, the melting point is greater than 300 °C. `CC(C)(C)c1ccc(Nc2cccc(Br)n2)c(N)c1`: the melting point was 125 to 128 °C. In turn, `CC(=O)Nc1ccc2c(c1)C(=O)CCC2` came in with a melting point of 165 to 166 °C.

As to `O=C(NCCSCc1cccc(I)c1)c1c(Cl)cccc1Cl`, the melting point was in the range of 75 to 78 °C.

Regarding `CCOC(=O)C1=C(C)N(C(=O)OCC)C(C)=C(C(=O)OCC)C1c1ccccc1C(F)(F)F`, the melting point was 56 to 58 °C. `N#CC1(Nc2ccccc2)CCN(C2C3CCCC2CCC3)CC1` (centres undefined) yielded a melting point of 168 °C. Take `COc1ccc2nc(COc3ccc4c(c3)C(SCCC(=O)O)c3ccccc3CO4)ccc2c1` (centres undefined): the melting point was 174 to 175 °C. In turn, `Cc1ccccc1C(=O)c1ccc(Nc2ccccc2NS(=O)(=O)c2ccccc2)cc1Cl` showed a melting point of 211 to 215 °C. `COc1cc(C=O)ccc1NC(=O)OCC1c2ccccc2-c2ccccc21` registered a melting point of 150 to 152 °C. `O=C(O)c1ccccc1Nc1ccc(CCc2ccc(O)c(O)c2)cc1` gave a melting point of 215 to 217 °C. The compound `O=C(O)CNC(=O)CBr` showed a melting point of 90 to 91 °C. The value for `O=C(O)C=C1SC(=Nc2ccc(Br)c(Br)c2)N(c2ccc(Br)c(Br)c2)C1=O` was 235 to 237 °C; that for `Cc1nc(-c2c(F)cccc2Cl)n[nH]1` was 232 to 233 °C; that for `COc1cccc(OC/C=C(\C)C=O)c1` was 45 to 48 °C. For `CCN(CC)C(=O)c1cc2ccc(Cl)cc2c(-c2ccccc2Cl)n1`, the melting point came out at 145 °C.

`NC(=O)c1cc(I)cc(I)c1O` had a melting point of 206 °C. As for `CC1COP(=O)(Cc2ccc([N+](=O)[O-])cc2)OC1` (centres undefined), the melting point was 170 to 171 °C.

`CNc1n[nH]c(=O)n1NC` returned a melting point of 135 to 137 °C.

In turn, `C=CCOc1nccnc1Cl` came in with a melting point of 149 to 150 °C. Consider `CCOC(=O)C1=NNC(C)=C(C(=O)OC)C1c1cccc([N+](=O)[O-])c1` (centres undefined), for which the melting point amounted to 174 °C. `Nc1nc(NCCN2CCC(NC3(Cc4ccc(F)cc4)Nc4ccccc4N3)CC2)ccc1[N+](=O)[O-]` came in with a melting point of 206 °C. With `COC(CN1CCN(c2ccc(F)cc2)CC1)CN1c2cccc3cccc(c23)S1(=O)=O` (centres undefined), the melting point was determined as 128 °C. `COC(=O)C1CCCn2c(C(=O)c3ccc(F)cc3)ccc21` (centres undefined) registered a melting point of 78 to 79 °C. Compound `CC(C)(C)NS(=O)(=O)c1cccc2c1C(O)CCC2` (centres undefined) showed a melting point of 100 to 111 °C.

On to `COC(=O)COCc1cc2cc(C(F)(F)F)ccc2n1S(=O)(=O)c1ccccc1`, for which the melting point is 90 to 92 °C.

`CCCCn1c(=O)c2nn(S(=O)(=O)Cc3ccccc3)cc2n(CCCC)c1=O` came in with a melting point of 90 to 93 °C.

As for `CN(C[C@H](O)[C@@H](O)[C@H](O)[C@H](O)CO)C(=O)c1ccc2n1Cc1ccccc1N(C(=O)c1ccc(-c3cccc4ccccc34)nc1)C2`, the melting point was in the range of 165 to 167 °C.

Compound `COc1ccc(Cc2cccc(C(Cl)(C3=NCCCN3)c3ccccc3)c2)cc1` (centres undefined) displayed a melting point of 125 °C. Take `CCS(=O)(=O)NC(=O)N1CC1C#N` (centres undefined): the melting point lay in the range of 70 to 73 °C. As for `Cn1c(C(F)(F)F)cc(=O)n(-c2cc(OCc3ccc(F)cc3)c(Cl)cc2F)c1=O`, the melting point lay within 174 to 177 °C. In the case of `c1cc(NC2=NCCN2)ccc1Cc1ccc(OC2CCOCC2)cc1`, the melting point lay within 169 to 170 °C. In the case of `O=C(NCCC[PH](=O)O)OCc1ccccc1`, the melting point was 53 to 55 °C. `NNC1=Nc2ccc(Br)cc2C(c2ccccn2)=NC1` displayed a melting point of 218 to 228 °C.

`CCOC(=O)c1cc2c(OC)cc3c(c2[nH]1)CCCC3` showed a melting point of 202 to 203 °C.

`COc1cc2c(cc1Nc1ncc(Cl)c(N[C@@H]3CCCC[C@H]3NS(C)(=O)=O)n1)CCN(CCNC(C)=O)CC2` had a melting point of 108 to 118 °C. The compound `CC(C)c1ccc(C2(CC(=O)O)CNC(=O)C2)cc1` (centres undefined) had a melting point of 175 to 178 °C.
